Measured values published in ChEMBL document CHEMBL1201862, “PubChem BioAssay data set” (2004).
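Protocol summary: plate cells (96-well), add compound at 5 concentrations, incubate 48 h, interpolate endpoints linearly. GI50 is the concentration that inhibits growth by half.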 Active and inactive are the calls of the source. Rule as the data show it: active = GI50 up to about 1.1 µM and inactive = higher.

Tests used:
Experiment in all cases: DTP human tumour cell line panel, 48 h
[1] = tested on: COLO 205
[2] = tested on: EKVX
[3] = tested on: HCC 2998
[4] = tested on: HCT-116
[5] = tested on: HT-29
[6] = tested on: IGROV-1
[7] = tested on: K562
[8] = tested on: LOX IMVI
[9] = tested on: NCI-H226
[10] = tested on: NCI-H23
[11] = tested on: NCI-H460
[12] = tested on: OVCAR-8
[13] = tested on: RXF 393
[14] = tested on: SK-MEL-28
[15] = tested on: SK-OV-3
[16] = tested on: SN12C
[17] = tested on: SW-620
[18] = tested on: M14
[19] = tested on: UACC-62

Row | SMILES | GI50 [1] | GI50 [2] | GI50 [3] | GI50 [4] | GI50 [5] | GI50 [6] | GI50 [7] | GI50 [8] | GI50 [9] | GI50 [10] | GI50 [11] | GI50 [12] | GI50 [13] | GI50 [14] | GI50 [15] | GI50 [16] | GI50 [17] | GI50 [18] | GI50 [19]
1 | COC(=O)C1C(C(=O)OC)C2C(=O)C3C(C(=O)OC)C(C(=O)OC)C3C(=O)C12 (stereo not given) | > 100 µM (inactive) | > 100 µM (inactive) | > 100 µM (inactive) | > 100 µM (inactive) | > 100 µM (inactive) | > 100 µM (inactive) | > 100 µM (inactive) | > 100 µM (inactive) | > 100 µM (inactive) | > 100 µM (inactive) | > 100 µM (inactive) | > 100 µM (inactive) | 25.4 µM (inactive) | > 100 µM (inactive) | > 100 µM (inactive) | > 100 µM (inactive) | > 100 µM (inactive) |  | 
2 | COc1ccc(C2C(C(=O)O)=C(CO)Oc3cc4c(cc32)OCO4)c(OC)c1 (stereo not given) | 68.7 µM (inactive) | > 100 µM (inactive) |  | 78.2 µM (inactive) | 67.6 µM (inactive) | > 100 µM (inactive) | 87.5 µM (inactive) | 45.1 µM (inactive) |  | > 100 µM (inactive) | > 100 µM (inactive) | 98.4 µM (inactive) | > 100 µM (inactive) | 46.2 µM (inactive) | > 100 µM (inactive) | 43.1 µM (inactive) | > 100 µM (inactive) | > 100 µM (inactive) | 57.3 µM (inactive)
3 | C/C=N\N1C(=O)c2ccccc2C1=O |  | > 100 µM (inactive) | > 100 µM (inactive) | > 100 µM (inactive) | > 100 µM (inactive) | > 100 µM (inactive) | > 100 µM (inactive) | > 100 µM (inactive) | > 100 µM (inactive) | > 100 µM (inactive) | > 100 µM (inactive) | > 100 µM (inactive) | > 100 µM (inactive) | > 100 µM (inactive) |  | > 100 µM (inactive) | > 100 µM (inactive) | > 100 µM (inactive) | > 100 µM (inactive)
4 | Cc1cc2nc3c(=O)[nH]c(=O)nc-3n(CC(O)C(O)C(O)CO)c2cc1N (stereo not given) | > 100 µM (inactive) | > 100 µM (inactive) | > 100 µM (inactive) | > 100 µM (inactive) | > 100 µM (inactive) | > 100 µM (inactive) | > 100 µM (inactive) | > 100 µM (inactive) | > 100 µM (inactive) | > 100 µM (inactive) | > 100 µM (inactive) | > 100 µM (inactive) |  | > 100 µM (inactive) | > 100 µM (inactive) | > 100 µM (inactive) | > 100 µM (inactive) | > 100 µM (inactive) | > 100 µM (inactive)
5 | CC1OC(OC2C(CO)OC(O[C@H]3CC[C@@]4(C)C(=CC[C@H]5[C@@H]6C[C@@H]7O[C@]8(CC[C@@H](C)CN8)[C@@H](C)[C@@H]7[C@@]6(C)CC[C@@H]54)C3)C(O)C2O)C(O)C(O)C1O (stereo not given in full) | > 100 µM (inactive) | 76 µM (inactive) |  | > 100 µM (inactive) | > 100 µM (inactive) | > 100 µM (inactive) | > 100 µM (inactive) | > 100 µM (inactive) |  | > 100 µM (inactive) | > 100 µM (inactive) | > 100 µM (inactive) | > 100 µM (inactive) | 31.8 µM (inactive) | > 100 µM (inactive) | > 100 µM (inactive) | > 100 µM (inactive) | > 100 µM (inactive) | > 100 µM (inactive)
6 | COC(=O)C(=NNc1ccccc1[N+](=O)[O-])C(=O)OC | > 100 µM (inactive) | > 100 µM (inactive) | > 100 µM (inactive) | > 100 µM (inactive) | > 100 µM (inactive) | > 100 µM (inactive) | > 100 µM (inactive) | > 100 µM (inactive) | > 100 µM (inactive) | > 100 µM (inactive) | > 100 µM (inactive) | > 100 µM (inactive) | > 100 µM (inactive) | > 100 µM (inactive) | > 100 µM (inactive) | > 100 µM (inactive) | > 100 µM (inactive) |  | 
7 | COc1ccc(NC(=O)/C(=C/c2ccccc2)C(C)=O)cc1 | 19.1 µM (inactive) | 22.5 µM (inactive) | 18.9 µM (inactive) |  | 13.3 µM (inactive) | 17.5 µM (inactive) | 12.5 µM (inactive) | 10.7 µM (inactive) | 19.2 µM (inactive) | > 10 µM (inactive) | 21.6 µM (inactive) | 18.1 µM (inactive) |  | 12.9 µM (inactive) | 40.2 µM (inactive) | 14.4 µM (inactive) | 16.2 µM (inactive) | 12.9 µM (inactive) | 7.89 µM (inactive)
8 | O=[N+]([O-])c1ccc(C2=Nn3c(nnc3-c3ccccc3)SC2)o1 | 21.4 µM (inactive) | 46.8 µM (inactive) | 18.9 µM (inactive) | 17.6 µM (inactive) | 23.7 µM (inactive) | 21.8 µM (inactive) | 20.4 µM (inactive) |  | 58.6 µM (inactive) | 20.6 µM (inactive) | 18.6 µM (inactive) | 19.3 µM (inactive) | 19.3 µM (inactive) | 29.2 µM (inactive) | > 100 µM (inactive) | 15.7 µM (inactive) | 18 µM (inactive) | 17.6 µM (inactive) | 19.5 µM (inactive)
9 | COc1cc2cccc(/N=C\c3cccc(OC)c3OC(C)C)c2cc1OC | 36.2 µM (inactive) | 52 µM (inactive) | 35.9 µM (inactive) |  | 23.2 µM (inactive) | 24 µM (inactive) | 15.6 µM (inactive) |  |  | 23.4 µM (inactive) | 33.9 µM (inactive) | 21.5 µM (inactive) |  | 24.3 µM (inactive) | 25.2 µM (inactive) | 40.1 µM (inactive) | 21 µM (inactive) | 17.9 µM (inactive) | 19.6 µM (inactive)
10 | C=C[Si](C)(C)COC(=O)/C(C#N)=C/C=C/c1ccccc1 | > 100 µM (inactive) | > 100 µM (inactive) | > 100 µM (inactive) | > 100 µM (inactive) | > 100 µM (inactive) | > 100 µM (inactive) | 59 µM (inactive) |  | > 100 µM (inactive) | > 100 µM (inactive) | > 100 µM (inactive) | > 100 µM (inactive) | 40.6 µM (inactive) | > 100 µM (inactive) | > 100 µM (inactive) | > 100 µM (inactive) | 76 µM (inactive) | > 100 µM (inactive) | 88.7 µM (inactive)
11 | CN/C(=N/C#N)NCc1ccccc1 | > 100 µM (inactive) | 0.0512 µM (active) | 27.4 µM (inactive) | > 100 µM (inactive) | > 100 µM (inactive) | > 100 µM (inactive) |  | > 100 µM (inactive) | > 100 µM (inactive) | > 100 µM (inactive) | > 100 µM (inactive) | > 100 µM (inactive) |  | > 100 µM (inactive) | > 100 µM (inactive) | > 100 µM (inactive) | > 100 µM (inactive) | > 100 µM (inactive) | 
12 | NC(=O)c1c(-c2ccccc2)c(-c2ccccc2)cc2c(=O)c3ccccc3[nH]c12 | 29 µM (inactive) | 41.2 µM (inactive) | 43.2 µM (inactive) | 14.4 µM (inactive) | 18.9 µM (inactive) | 22.1 µM (inactive) | 30.3 µM (inactive) | 45.5 µM (inactive) |  | 17.5 µM (inactive) | 22.2 µM (inactive) | 20.8 µM (inactive) |  | 17.8 µM (inactive) | 25.3 µM (inactive) | 40 µM (inactive) | 37.1 µM (inactive) | 33.2 µM (inactive) | 25.5 µM (inactive)
13 | Nc1c(-c2nc3ccccc3[nH]2)sc(=S)n1-c1ccccc1 | > 100 µM (inactive) | 55.2 µM (inactive) | > 100 µM (inactive) | > 100 µM (inactive) | 92.9 µM (inactive) | > 100 µM (inactive) | 53.8 µM (inactive) |  | > 100 µM (inactive) | > 100 µM (inactive) | > 100 µM (inactive) | > 100 µM (inactive) | 46.9 µM (inactive) | > 100 µM (inactive) | > 100 µM (inactive) | > 100 µM (inactive) | > 100 µM (inactive) | > 100 µM (inactive) | 13.5 µM (inactive)
14 | N=C(N)NS(=O)(=O)c1ccc(NC(=O)c2cccc3cc4ccccc4nc23)cc1 | > 100 µM (inactive) | > 100 µM (inactive) |  | 19.3 µM (inactive) | > 100 µM (inactive) | > 100 µM (inactive) | 53 µM (inactive) | 51.5 µM (inactive) | 9.75 µM (inactive) | > 100 µM (inactive) | > 100 µM (inactive) | 14.5 µM (inactive) | > 100 µM (inactive) | > 100 µM (inactive) | > 100 µM (inactive) | > 100 µM (inactive) | 66.8 µM (inactive) | > 100 µM (inactive) | > 100 µM (inactive)
15 | Cc1nc2ccccc2nc1CC(=O)C(=O)Nc1ccc(Cl)cc1Cl | > 100 µM (inactive) | > 100 µM (inactive) | > 100 µM (inactive) | > 100 µM (inactive) |  | > 100 µM (inactive) | > 100 µM (inactive) | > 100 µM (inactive) |  | > 100 µM (inactive) | > 100 µM (inactive) | > 100 µM (inactive) | > 100 µM (inactive) | > 100 µM (inactive) | > 100 µM (inactive) | > 100 µM (inactive) | > 100 µM (inactive) | > 100 µM (inactive) | > 100 µM (inactive)
16 | Cc1nc(N)nc(N)c1CCCCc1ccccc1 | 8.43 µM (inactive) | 20 µM (inactive) | 10.7 µM (inactive) | 5.21 µM (inactive) | 2.47 µM (inactive) | 5.41 µM (inactive) | 0.841 µM (active) | 5.83 µM (inactive) |  | 4.29 µM (inactive) | 3.32 µM (inactive) | 8.2 µM (inactive) | 11.1 µM (inactive) | > 10 µM (inactive) | 31.9 µM (inactive) | 22.6 µM (inactive) | 13.7 µM (inactive) | 6.21 µM (inactive) | 5.28 µM (inactive)
